System: E. coli
Assay: pin array antibiotic susceptibility assay (zones of inhibition) on LB agar plates
Assay type: cell-based
Details: 7×7 pin array
Description: 1. Cell Introduction: E. coli resuspension were plated onto LB agar plates and incubated at 37° C. until the cells reach desired condition.
2. Pin array preparation: Two 7×7 pin arrays were loaded with ampicillin from 0.2 μg to 4 μg according to the configurations shown in FIGS. 5B and 6B, respectively.
(§1) 3. Treatment: After the cells reach the desired condition, the pin arrays loaded with ampicillin according to the configurations shown in FIGS. 5B and 6B were coupled to LB agar plates with E. coli culture. The LB agar plates were incubated at 37° C.
2. Pin array preparation: Two 7×7 pin arrays were loaded with ampicillin from 0.4 μg to 4 μg according to the configurations shown in FIGS. 7A and 7B, respectively.
as §1, with “7A” for “5B”, “7B” for “6B”, “37° C., and stored overnight at 4°” for “37°”, “C. and in Styrofoam box with ice packs, respectively.” for “C.”
2. Pin array preparation: A 7×7 pin array was loaded with ampicillin from 0.4 μg to 4 μg according to the configurations shown in FIG. 8A.
3. Treatment: After the cells reach the desired condition, the pin array loaded with ampicillin according to the configurations shown in FIG. 8A was coupled to an LB agar plate with E. coli culture. The LB agar plate was incubated at 37° C., and images of the plates were taken at the same day (FIG. 8A), and after 5 weeks at 4° C. (FIG. 8B).

**Q.** Which results are given for CC1(C)S[C@@H]2[C@H](NC(=O)[C@H](N)c3ccccc3)C(=O)N2[C@H]1C(=O)O [ampicillin]?
**A.** zones of inhibition (ampicillin 0.2 μg to 4 μg, configuration of FIG. 5B, 37° C. (FIG. 5A)): well-defined, and a dose-dependent manner of the sizes of the zones; zones of inhibition (ampicillin 0.2 μg to 4 μg, configuration of FIG. 6B, 37° C. (FIG. 6A)): well-defined, dose-dependent zones of inhibition; zones of inhibition (ampicillin 0.4 μg to 4 μg, after 5 weeks of storage at 4° C. (FIG. 8B)): smaller zones of inhibition; zones of inhibition (ampicillin 0.4 μg to 4 μg, image taken the same day (FIG. 8A)): Well-defined, dose-dependent zones of inhibition; zones of inhibition (ampicillin 0.4 μg to 4 μg, stored overnight at 4° C. (FIG. 7A)): Well-defined, dose-dependent zones of inhibition; zones of inhibition (ampicillin 0.4 μg to 4 μg, stored overnight in Styrofoam box with ice packs (FIG. 7B)): Well-defined, dose-dependent zones of inhibition

Source: patent US20240254536A1, “[…] ARRAY AND USES THEREOF” (DrugArray, Inc., priority 2021, published 2024)
